According to patent US20020137209A1, “Methods of dissociating nongenotropic from genotropic activity of steroid receptors” (priority 2000, published 2002):
Ends that are not written are not given here.

Experiments:
[1] = system: retinoid X receptor (RXR); test: Etoposide-induced apoptosis in HeLa cells transfected with RXR
[2] = system: osteocytic cell line MLO-Y4; test: Apoptosis of MLO-Y4 osteocytic cells (trypan blue); assay type: cell-based; details: inhibitor 30 min prior to E2 or DHT; etoposide 6 hours
ERK1/2 = test: ERK phosphorylation in MLO-Y4 cells (Western blot); assay type: cell-based; details: inhibitor 25 min, then 5 min E2 or DHT
Procedure: Western blot analysis. The phosphorylation status of ERK1/2 was analyzed by immunoblotting using a mouse monoclonal antibody recognizing tyrosine phosphorylated ERK1/2, or a rabbit polyclonal antibody recognizing total ERK1/2, followed by incubation with either an anti-mouse or an anti-rabbit antibody conjugated with horseradish peroxidase (Santa Cruz Biotechnology).

E domain of the ER = test: Etoposide-induced apoptosis in HeLa cells transfected with the E domain of ERα; assay type: cell-based, human
Procedure: (§1) DNA constructs. […] Bio. […] The sequence for peptide αII is […] (SEQ ID NO.: 1). […] (SEQ ID NO.: 3). The sequence for GRIP is […] […] […] (SEQ ID NO.: 4). […] The forward primer contained the restriction site for SalI and the ERα Kozak sequence and the reverse primer contained the BamH1 restriction site. Amplified PCR products were subcloned into the SalI/BamH1 restriction site of pCMV.
(§2) Transient transfections. HeLa cells were plated at 5×10^4/cm^2 and after 16-24 hours were transfected with a total amount of 3 μg of DNA using Lipofectamine (Life Technologies Inc). Following a 4-6 hours of incubation, the transfection mix was replaced with fresh medium containing 10% charcoal-stripped serum and treatments were initiated.

AR = molecular target: T1, AR (Homo sapiens, UniProt P10275); test: Etoposide-induced apoptosis in HeLa cells transfected with AR
T1 sequence (P10275 1-920): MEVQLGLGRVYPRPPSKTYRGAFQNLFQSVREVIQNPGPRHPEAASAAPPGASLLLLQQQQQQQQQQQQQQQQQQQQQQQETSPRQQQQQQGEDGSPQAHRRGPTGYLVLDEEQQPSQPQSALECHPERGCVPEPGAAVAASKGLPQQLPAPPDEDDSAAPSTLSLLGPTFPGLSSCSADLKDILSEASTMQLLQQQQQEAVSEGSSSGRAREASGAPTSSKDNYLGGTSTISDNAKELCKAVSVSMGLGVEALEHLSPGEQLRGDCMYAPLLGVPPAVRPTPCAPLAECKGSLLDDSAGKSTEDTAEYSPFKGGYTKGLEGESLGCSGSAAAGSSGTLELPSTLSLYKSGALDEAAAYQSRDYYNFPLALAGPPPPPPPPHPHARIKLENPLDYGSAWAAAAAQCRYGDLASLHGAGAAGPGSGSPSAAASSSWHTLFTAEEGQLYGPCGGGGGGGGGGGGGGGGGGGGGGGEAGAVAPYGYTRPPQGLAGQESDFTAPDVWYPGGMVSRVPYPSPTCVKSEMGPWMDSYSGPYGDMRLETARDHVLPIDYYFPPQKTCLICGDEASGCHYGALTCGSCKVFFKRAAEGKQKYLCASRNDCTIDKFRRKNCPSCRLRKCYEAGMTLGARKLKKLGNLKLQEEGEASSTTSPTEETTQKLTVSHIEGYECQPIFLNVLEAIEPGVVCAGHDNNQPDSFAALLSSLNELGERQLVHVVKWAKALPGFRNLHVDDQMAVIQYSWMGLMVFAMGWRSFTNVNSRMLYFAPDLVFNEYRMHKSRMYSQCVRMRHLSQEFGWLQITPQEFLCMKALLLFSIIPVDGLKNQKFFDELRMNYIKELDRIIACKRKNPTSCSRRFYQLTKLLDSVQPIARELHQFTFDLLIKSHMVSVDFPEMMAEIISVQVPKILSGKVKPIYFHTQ

ERα [3] = molecular target: T2, ERα (Homo sapiens, UniProt P03372); test: Etoposide-induced apoptosis in HeLa cells transfected with ERα
T2 sequence (P03372 1-595): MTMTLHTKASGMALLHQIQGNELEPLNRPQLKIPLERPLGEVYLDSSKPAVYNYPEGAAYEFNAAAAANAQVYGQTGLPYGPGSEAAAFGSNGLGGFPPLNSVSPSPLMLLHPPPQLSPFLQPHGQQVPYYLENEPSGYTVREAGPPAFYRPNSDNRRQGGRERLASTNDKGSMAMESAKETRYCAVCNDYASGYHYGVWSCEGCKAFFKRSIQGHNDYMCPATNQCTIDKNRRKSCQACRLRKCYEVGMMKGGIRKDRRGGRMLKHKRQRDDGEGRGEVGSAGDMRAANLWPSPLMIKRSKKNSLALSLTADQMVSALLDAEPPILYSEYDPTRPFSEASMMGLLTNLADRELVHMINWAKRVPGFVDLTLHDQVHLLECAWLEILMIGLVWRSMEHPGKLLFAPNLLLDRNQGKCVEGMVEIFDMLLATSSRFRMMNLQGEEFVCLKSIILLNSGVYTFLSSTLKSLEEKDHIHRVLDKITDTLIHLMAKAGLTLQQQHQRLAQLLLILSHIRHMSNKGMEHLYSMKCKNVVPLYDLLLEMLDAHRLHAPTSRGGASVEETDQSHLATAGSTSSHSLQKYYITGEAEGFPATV

[4] = system: calvaria-derived murine osteoblastic cells; test: Apoptosis of calvaria-derived osteoblastic cells (trypan blue); details: etoposide-induced apoptosis
ERα [5] = molecular target: T2, ERα; test: C3-luc transcription in HeLa cells transfected with ERα; assay type: cell-based; design: expression vectors encoding the full length ERα or its E domain; expressed in transfected cells; host or cells: HeLa; details: HeLa with C3-luc and ERα
Procedure: A. For C3-mediated transcription, HeLa cells were transfected with C3-luc and ERα, and were treated with the indicated concentrations of an estren or a pyrazole. Bars represent the mean±SD of the relative luciferase units (RLU) normalized for β-galactosidase activity. p<0.05 versus cells transfected with empty vector (ev), by ANOVA. The anti-apoptotic activity of the estren and the pyrazole was evaluated in calvaria-derived osteoblasts as described in FIG. 1B. * p<0.05 versus cells not treated with etoposide by ANOVA. B. MLO-Y4 cells were incubated for 5, min with the indicated concentrations of the different ligands and ERK phosphorylation was assessed as in FIG. 4A.
DNA constructs. Reporter plasmids carrying the 2.25 Kb of the human IL-6 promoter, 3 copies of the vitellogenin ERE sequences, or the complement 3 promoter driving the firefly luciferase gene (IL-6-luc, ERE-luc, and C3-luc, respectively) were used to assay transcriptional effects of the steroids. The expression plasmids of ER peptide antagonists carrying either αII, or two copies of 293 (2x293) , or two copies of F6 (2xF6) or GRIP fused to the GAL4 DNA binding domain driven by the SV40 promoter have been described previously (Norris, J. D. et al. (1999) Science 285, 744-746). The sequences of the peptides are disclosed in Chang et al. (1999) Mol. Cell. Bio. 19:8226-8239 which is incorporated herein in its entirety. […]

ERβ [6] = molecular target: T3, ERβ (Homo sapiens, UniProt Q92731); test: ERE-luc transcription in HeLa cells transfected with ERβ; assay type: cell-based; design: expressed in transfected cells; host or cells: HeLa; details: ERβ carrying HeLa cells, 10^−8 M E2
Excerpt: (§3) A. HeLa cells were transiently transfected with the ERα expression vector alone or together with a vector carrying a fusion of the α-II peptide with the GAL4 DNA binding domain driven by the SV40 promoter. In addition, cells were transfected with ERE-luc or IL-6-luc for the transcription studies; or with EGFP-nuc for the apoptosis experiments. […] B. HeLa cells were transfected with ERα or ERβ alone or together with expression vectors carrying 2X293 or 2XF6 peptides. […] C. HeLa cells were transfected with a vector carrying the GRIP peptide alone or together with ERα.
as §1, §2

ERβ [7] = molecular target: T3, ERβ; test: IL-6-luc transcription in HeLa cells transfected with ERβ; assay type: cell-based; design: expressed in transfected cells; host or cells: HeLa; details: ERβ carrying HeLa cells, 10^−8 M E2
Excerpt: as §3, §1, §2

ERβ [8] = molecular target: T3, ERβ; test: Etoposide-induced apoptosis in HeLa cells transfected with ERβ; details: peptide co-transfected, 10^−8 M E2
ERα [9] = molecular target: T2, ERα; test: ERE-luc transcription in HeLa cells transfected with ERα; assay type: cell-based; design: expression vectors encoding the full length ERα or its E domain; expressed in transfected cells; host or cells: HeLa; details: ERα carrying HeLa cells, 10^−8 M E2
Excerpt: as §3, §1, §2

ERα [10] = molecular target: T2, ERα; test: IL-6-luc transcription in HeLa cells transfected with ERα; assay type: cell-based; design: expression vectors encoding the full length ERα or its E domain; expressed in transfected cells; host or cells: HeLa; details: ERα carrying HeLa cells, 10^−8 M E2
Excerpt: as §3, §1, §2

T3 sequence (Q92731 whole entry, species assumed, the tested form may be a part): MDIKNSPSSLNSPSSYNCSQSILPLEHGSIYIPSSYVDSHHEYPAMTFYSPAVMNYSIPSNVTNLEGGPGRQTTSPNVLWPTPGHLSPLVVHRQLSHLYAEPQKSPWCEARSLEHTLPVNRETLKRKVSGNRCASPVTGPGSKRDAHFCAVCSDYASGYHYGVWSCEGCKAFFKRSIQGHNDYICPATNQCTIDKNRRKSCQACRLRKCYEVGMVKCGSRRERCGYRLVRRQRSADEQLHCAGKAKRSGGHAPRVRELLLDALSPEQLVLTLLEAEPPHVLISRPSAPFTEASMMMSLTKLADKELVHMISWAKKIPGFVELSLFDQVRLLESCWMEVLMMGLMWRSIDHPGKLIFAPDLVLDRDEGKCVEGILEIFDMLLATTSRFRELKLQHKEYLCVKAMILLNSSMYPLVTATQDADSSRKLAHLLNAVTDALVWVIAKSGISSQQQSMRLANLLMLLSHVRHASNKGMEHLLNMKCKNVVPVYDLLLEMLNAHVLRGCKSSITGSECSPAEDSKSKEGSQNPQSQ

Compound: C=C1/C(=C\C=C2/CCC[C@]3(C)[C@@H]([C@H](C)CCCC(C)(C)O)CC[C@@H]23)C[C@@H](O)C[C@@H]1O [1,25(OH)2D3, 1,25-dihydroxy-Vitamin D3]
- prevention of etoposide-induced apoptosis [1]: prevented apoptosis

Compound: COc1cccc(-c2cc(=O)c3ccccc3o2)c1N [PD98059]
- effect of inhibitor on the anti-apoptotic effect of E2 and DHT [2]: completely abrogated
- effect of inhibitor on induction of ERK phosphorylation by E2 or DHT (ERK1/2): blocked
- effect of inhibitor on anti-apoptotic activity, compared with full length ERα (E domain of the ER): exactly the same effects
- effect of antagonist/inhibitor on the anti-apoptotic effect of E2 or DHT (AR): abrogated
- effect of antagonist/inhibitor on the anti-apoptotic effect of E2 or DHT (ERα [3]; HeLa transfected with ERα): abrogated

Compound: c1cn[nH]c1 [pyrazole]
- anti-apoptotic efficacy on primary calvaria cells [4]: minimal anti-apoptotic efficacy
- transcriptional activity on the C3 gene (C3-luc) (ERα [5]): potent transcriptional activity

Compound: F6: peptide GHEPLTLLERLLMDDKQAV (SEQ ID NO.: 3) interacting with both ERα and ERβ; two copies expressed as GAL4 fusion (also: two copies fused to GAL4 DNA binding domain)
- effect of peptide on E2-induced ERE-Luc transcription (ERβ [6]): blocked
- effect of peptide on E2 effect on IL-6-Luc transcription (ERβ [7]): blocked
- effect of peptide on the anti-apoptotic activity of ERα (E2) (ERα [3]; peptide co-transfected, 10^−8 M E2): blocked
- effect of peptide on the anti-apoptotic activity of ERβ (E2) (ERβ [8]): blocked
- effect of peptide on E2-induced ERE-Luc transcription (ERα [9]): blocked
- effect of peptide on E2-induced decrease in IL-6-Luc transcription (ERα [10]): blocked

Compound: estren
- anti-apoptotic efficacy on primary calvaria cells [4]: potent anti-apoptotic efficacy
- transcriptional activity on the C3 gene (C3-luc) (ERα [5]): no transcriptional activity
